In US7368576B2, “Dipeptidyl peptidase IV inhibitors and their uses as anti-cancer agents” (Probiodrug AG, priority 2001, dated 2008):
Several values for one entry are separate records, joined by “and”; a condition that tells them apart may be missing. Equal entries are not always repeated. Entries after “also recorded” stand apart in the source; their conditions may differ. Where two headings read alike, the source gives them in different places. Square brackets hold non-standard residues; d marks the D form. Peptide text beside a SMILES is read from it. pY = N[C@@H](Cc1ccc(OP(=O)(O)O)cc1)C(=O)O; Hyp = O=C(O)[C@@H]1C[C@@H](O)CN1; Tic = O=C(O)[C@@H]1Cc2ccccc2CN1; Tle = CC(C)(C)[C@H](N)C(=O)O

Tests used:
[1] = target: T1, plasma DPIV activity (Rattus norvegicus, UniProt P14740); assay: DPIV inhibiting activity after intravasal and oral administration to Wistar rats; format: in vivo; conditions: 100 mg/kg; for In vivo DPIV-inhibition at tmax, i.v. (%): intra-vasal (intra-arterial); for In vivo DPIV-inhibition at tmax, p.o. (%): oral
T1 construct: determination of plasma DPIV activity consisted of 80 μl reagent and 20 μl plasma sample; from tissue; host or cells: plasma of Wistar rats after i.v. or p.o. dosing
T1 sequence (P14740 37-767 limits assumed): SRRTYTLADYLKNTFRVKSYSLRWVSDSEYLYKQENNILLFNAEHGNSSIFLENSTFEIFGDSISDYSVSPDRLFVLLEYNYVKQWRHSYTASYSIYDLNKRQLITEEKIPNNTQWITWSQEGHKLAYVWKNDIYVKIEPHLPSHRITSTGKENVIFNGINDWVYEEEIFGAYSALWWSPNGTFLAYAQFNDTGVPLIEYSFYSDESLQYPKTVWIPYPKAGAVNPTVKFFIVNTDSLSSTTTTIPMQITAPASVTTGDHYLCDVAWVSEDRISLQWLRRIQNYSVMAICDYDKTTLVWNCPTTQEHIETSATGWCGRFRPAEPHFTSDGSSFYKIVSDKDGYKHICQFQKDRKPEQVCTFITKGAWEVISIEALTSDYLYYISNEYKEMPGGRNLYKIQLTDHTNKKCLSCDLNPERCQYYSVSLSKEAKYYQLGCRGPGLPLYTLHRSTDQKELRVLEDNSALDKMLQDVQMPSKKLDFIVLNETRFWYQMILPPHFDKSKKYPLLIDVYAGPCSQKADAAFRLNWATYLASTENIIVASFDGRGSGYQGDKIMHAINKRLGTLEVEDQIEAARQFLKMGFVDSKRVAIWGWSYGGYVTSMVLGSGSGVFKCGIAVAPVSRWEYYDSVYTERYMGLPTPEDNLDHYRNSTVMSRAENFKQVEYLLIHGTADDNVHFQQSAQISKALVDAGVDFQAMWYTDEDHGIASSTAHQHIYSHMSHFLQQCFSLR
Method: Male Wistar rats (Shoe: Wist(Sho)) with a body weight ranging between 250 and 350 g were purchased from Tierzucht Schönwalde (Schönwalde, Germany).
After overnight fasting, 100 μl samples of heparinised arterial blood were collected at −30, −5, and 0 min. […] In the case of oral administration, an additional volume of 1 ml saline was injected into the arterial catheter. In the case of intra-arterial administration, the catheter was immediately flushed with 30 μl saline and an additional 1 ml of saline was given orally via the feeding tube.
All blood samples were collected into ice cooled Eppendorf tubes (Eppendorf-Netheler-Hinz, Hamburg, Germany) filled with 10 μl 1M sodium citrate buffer (pH 3.0) for plasma DPIV activity measurement. Eppendorf tubes were centrifuged immediately (12000 rpm for 2 min, Hettich Zentrifuge EBA 12, Tuttlingen; Germany): The plasma fractions were stored on ice until analysis or were frozen at −20° C. until analysis. All plasma samples were labelled with the following data: • Code number • Animal Number • Date of sampling • Time of sampling Analytical Methods
The assay mixture for determination of plasma DPIV activity consisted of 80 μl reagent and 20 μl plasma sample. […] The DPIV activity was expressed in mU/ml.

[2] = target: T2, dipeptidyl peptidase IV from porcine kidney (Sus scrofa, UniProt P22411); assay: Ki determination, DPIV inhibition (glycylprolyl-4-nitroaniline); format: biochemical; conditions: HEPES pH7.6, 30° C.
T2 construct: dipeptidyl peptidase IV from porcine kidney; from tissue; host or cells: porcine kidney
T2 sequence (P22411 whole entry): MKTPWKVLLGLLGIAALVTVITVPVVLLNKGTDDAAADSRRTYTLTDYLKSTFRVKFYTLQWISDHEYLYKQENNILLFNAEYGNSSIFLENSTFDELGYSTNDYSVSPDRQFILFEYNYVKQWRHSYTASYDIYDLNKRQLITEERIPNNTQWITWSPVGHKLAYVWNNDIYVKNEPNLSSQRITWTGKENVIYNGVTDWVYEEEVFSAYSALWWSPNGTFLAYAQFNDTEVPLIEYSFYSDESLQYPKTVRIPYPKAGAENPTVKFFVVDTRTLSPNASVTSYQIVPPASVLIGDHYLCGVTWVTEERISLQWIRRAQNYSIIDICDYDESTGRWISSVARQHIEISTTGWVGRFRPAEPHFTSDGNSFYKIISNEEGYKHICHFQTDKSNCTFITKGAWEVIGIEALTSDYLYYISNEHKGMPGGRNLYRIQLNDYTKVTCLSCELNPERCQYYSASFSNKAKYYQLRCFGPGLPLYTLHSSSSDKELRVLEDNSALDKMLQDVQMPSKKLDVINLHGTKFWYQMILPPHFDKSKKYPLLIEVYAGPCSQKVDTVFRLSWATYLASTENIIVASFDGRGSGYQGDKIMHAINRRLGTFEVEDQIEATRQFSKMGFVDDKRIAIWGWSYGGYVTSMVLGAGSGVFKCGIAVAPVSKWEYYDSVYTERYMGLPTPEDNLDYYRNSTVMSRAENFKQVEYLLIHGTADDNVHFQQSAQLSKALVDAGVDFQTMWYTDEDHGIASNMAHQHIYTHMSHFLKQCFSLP

[3] = target: T3, PepT1 (Oryctolagus cuniculus, UniProt P36836); assay: Inhibition of 3H-D-Phe-Ala binding to PepT1-expressing P. pastoris cells
T3 construct: expressed in transfected cells; host or cells: Pichia pastoris cells expressing PepT1 (per the assay description)
T3 sequence (P36836 1-707): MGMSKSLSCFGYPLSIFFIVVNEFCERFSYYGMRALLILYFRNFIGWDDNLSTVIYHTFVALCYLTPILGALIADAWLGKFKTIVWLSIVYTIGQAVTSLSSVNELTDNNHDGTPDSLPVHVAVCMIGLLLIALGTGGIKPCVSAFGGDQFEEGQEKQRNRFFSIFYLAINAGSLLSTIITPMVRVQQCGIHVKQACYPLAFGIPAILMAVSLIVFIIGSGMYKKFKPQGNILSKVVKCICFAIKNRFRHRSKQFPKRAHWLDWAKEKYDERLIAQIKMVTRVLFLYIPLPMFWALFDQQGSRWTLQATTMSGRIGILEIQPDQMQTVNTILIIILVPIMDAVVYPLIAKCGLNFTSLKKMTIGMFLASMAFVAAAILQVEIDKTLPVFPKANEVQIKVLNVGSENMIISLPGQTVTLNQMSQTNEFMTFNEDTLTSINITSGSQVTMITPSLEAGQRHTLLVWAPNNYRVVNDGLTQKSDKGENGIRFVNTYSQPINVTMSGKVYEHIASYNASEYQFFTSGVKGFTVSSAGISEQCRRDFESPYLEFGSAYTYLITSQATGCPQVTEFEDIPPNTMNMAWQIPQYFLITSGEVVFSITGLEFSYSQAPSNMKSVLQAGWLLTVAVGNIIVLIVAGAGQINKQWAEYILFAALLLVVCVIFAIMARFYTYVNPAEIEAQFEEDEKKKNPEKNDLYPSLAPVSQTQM
From the text: (§1) Side chain-modified glutamyl thiazolidines having a structure H-Glu(X)-Thia were synthesised, with polyethylene glycol or glycine oligomers of various chain lengths being used as X (see Method A of example for description of synthesis). The binding characteristics of those derivatives and their transportability by the peptide transporter PepT1 were investigated.

[4] = tested on: PepT1; assay: Transport at PepT1-expressing oocytes of X. leavis, two-electrode voltage clamp; format: cell-based
From the text: as §1

[5] = target: purified porcine DPIV (Sus scrofa, UniProt P22411); assay: Determination of IC50 values, DPIV (Gly-Pro-pNA); format: biochemical; conditions: Gly-Pro-pNA 0.4 mM, HEPES pH7.6, 30° C.
Sequence of purified porcine DPIV (P22411 whole entry): as the sequence (P22411 whole entry) above
Method: 100 μl inhibitor stock solution were mixed with 100 μl buffer (HEPES pH7.6) and 50 μl substrate (Gly-Pro-pNA, final concentration 0.4 mM) and preincubated at 30° C. Reaction was started by addition of 20 μl purified porcine DPIV. Formation of the product pNA was measured at 405 nm over 10 min using the HTS 7000Plus plate reader (Perkin Elmer) and slopes were calculated. The final inhibitor concentrations ranged between 1 mM and 30 nM. For calculation of IC50 GraFit 4.0.13 (Erithacus Software) was used.

[6] = tested on: MADB106 tumor cells; assay: In vivo cancer cell adhesion assay (CFSE labeled cells in lungs); parameters: species or system F344 rats; conditions: wild-type F344USA rats, single injection i.v. + i.p., 30 min after inoculation, vs. saline; fumarate
Method: Cell culture, injection of tumor cells, dissection of the animals and immunohistochemistry were conducted as previously described (von Hörsten et al., 2000). In brief, 1×10^6 MADB106 tumor cells derived from log phase of tumor growth were injected via the lateral tail vein and lungs removed at different time points thereafter. For in situ quantification of tumor cells at early time points after injection (30 min), cells were vital dye stained using the fluorescein derivate 5- (and -6)-carboxyfluorescein diacetate succinimidyl ester (CFSE) before injection.
Control sections were included in which one or both primary antibodies were omitted.
Vital dye (Carboxyfluorescein; CFSE) labeling of MADB106 tumor cells allows the quantification of tumor cells and NK cells in thick sections of lung tissue by stereology in situ (von Hörsten et al, 2000). In the present study we produced thin sections (8 μm) of the same lungs (n=10) and performed additional microscopic counting by image analysis of DE1 positive cells. This was done to further simplify the previously validated stereological quantification technique. Therefore, in the present study, the assessment of DE1 positive tumor cells in lung tissue from different substrains 30 min after tumor inoculation was carried out using image analysis approach. […] Each right upper lobe of the lungs was sectioned at 6 randomly chosen non-adjacent levels. From each level, three sections were evaluated.

Ki [2]	IC50 [5] [µM]	Molecule	other results
3.5 µM	–	NC(=O)CC(N)C(=O)N1CCSC1 (stereo not drawn) [H-Asn-thiazolidine]	–
13 µM	–	NC(CC(=O)NO)C(=O)N1CCCC1 (stereo not drawn) [H-Asp(NHOH)-pyrrolidine]	–
8.8 µM	–	NC(CC(=O)NO)C(=O)N1CCSC1 (stereo not drawn) [H-Asp(NHOH)-thiazolidine]	–
1.7 µM	–	NC(CCC(=O)NO)C(=O)N1CCSC1 (stereo not drawn) [H-Glu(NHOH)-thiazolidine]	EC50 [3]: 3180 µM; Imax, inward currents generated by the transport [4]: 42 ± 11 nA
0.62 µM and 0.61 µM	–	N[C@@H](CCC(=O)O)C(=O)N1CCSC1 [H-Glu-thiazolidine]	EC50 [3]: 1100 µM; Imax, inward currents generated by the transport [4]: 35 ± 13 nA
1.8 µM	–	NC(Cc1c[nH]cn1)C(=O)N1CCSC1 (stereo not drawn) [H-His-thiazolidine]	–
0.27 µM	–	CC(C)C(N)C(=O)N1CCSC1 (stereo not drawn) [H-Val-thiazolidine]	–
–	6000	CC[C@H](C)[C@H](N)C(=O)N1C[C@H](O)C[C@H]1C(=O)N[C@H](C(=O)O)[C@@H](C)CC [Ile-Hyp-Ile] (H-Ile-[Hyp]-Ile-OH; N-terminus and C-terminus assumed)	–
–	38.2	CCC(C)C(N)C(=O)C1CCCC1 (stereo not drawn) [Ile-cyclopentyl ketone, 1-cyclopentyl-3-methyl-1-oxo-2-pentanaminium chloride]	–
–	1000	CC[C@H](C)[C@H](NC(=O)[C@@H]1CCCN1C(=O)[C@@H]1Cc2ccccc2CN1)C(=O)O [Tic-Pro-Ile] (H-[Tic]-Pro-Ile-OH; N-terminus and C-terminus assumed)	–
–	67.5	CC(C)[C@H](N)C(=O)N1CCC[C@H]1C(=O)N[C@H](C(=O)O)C(C)(C)C [Val-Pro-t-butyl-Gly] (H-Val-Pro-[Tle]-OH; N-terminus and C-terminus assumed)	–
13.1 µM	49	CC(C)C(N)C(=O)C1CCCC1 (stereo not drawn) [Val-cyclopentyl ketone]	–
3.11 µM	–	H-Glu(PEG)-Thia	EC50 ([3]; read-out: EC50, concentration inhibiting binding of 3H-D-Phe-Ala to PepT1-expressing P. pastoris cells by 50%): > 10000 µM
0.00105 µM	0.0102	Val-Pro-acyloxy methyl ketone	–
0.0373 µM	0.138	Val-Pro-benzothiazol methyl ketone	–
0.000536 µM	0.0179	Val-Pro-benzoyl methyl ketone	–

The next lines start with the molecule.

Molecule	Ki [2]	IC50 [5] [µM]	other results
Br.CC(=O)OCC(=O)[C@@H]1CCCN1C(=O)[C@@H](NC(=O)[C@H](C)N)C(C)C [Ala-Val-Pro-acyloxy methyl ketone, H-Ala-Val-Pro-CH2O—C(O)CH3.HBr]	–	–	In vivo DPIV-inhibition at tmax, i.v. (%) [1]: 89%; In vivo DPIV-inhibition at tmax, p.o. (%) [1]: 86%
Br.CC(C)[C@H](NC(=O)[C@H](C)N)C(=O)N1CCC[C@H]1C(=O)COC(=O)c1ccccc1 [Ala-Val-Pro-benzoyl-methyl ketone, H-Ala-Val-Pro-CH2O—C(O)Ph.HBr]	–	–	In vivo DPIV-inhibition at tmax, i.v. (%) [1]: 97%; In vivo DPIV-inhibition at tmax, p.o. (%) [1]: 76%
NC(=O)CC(N)C(=O)N1CCCC1 (stereo not drawn) [H-Asn-pyrrolidine]	12 µM	–	–
NC(CC(=O)O)C(=O)N1CCCC1 (stereo not drawn) [H-Asp-pyrrolidine]	0.014 µM	–	–
NC(CC(=O)O)C(=O)N1CCSC1 (stereo not drawn) [H-Asp-thiazolidine]	2.9 µM	–	–
N[C@@H](CCC(=O)NCC(=O)NCC(=O)NCC(=O)O)C(=O)N1CCSC1 [H-Glu(Gly3)-Thia]	0.0192 µM	–	EC50 [3]: 8540 µM
N[C@@H](CCC(=O)NCC(=O)NCC(=O)NCC(=O)NCC(=O)NCC(=O)O)C(=O)N1CCSC1 [H-Glu(Gly5)-Thia]	0.0993 µM	–	EC50 [3]: > 10000 µM
NC(CCC(=O)NO)C(=O)N1CCCC1 (stereo not drawn) [H-Glu(NHOH)-pyrrolidine]	2.8 µM	–	–
NC(Cc1c[nH]cn1)C(=O)N1CCCC1 (stereo not drawn) [H-His-pyrrolidine]	3.5 µM	–	–
CCC(C)C(N)C(=O)N1CCSC1 (stereo not drawn) [H-Ile-Thia]	–	–	EC50 [3]: 980 µM; Imax, inward currents generated by the transport [4]: 25 ± 8 nA
CCC(C)C(N)C(=O)N1CC1 (stereo not drawn) [H-Ile-azididine]	3.1 µM	–	–
CCC(C)C(N)C(=O)C1CCCCC1 (stereo not drawn) [Ile-cyclohexyl ketone]	56.8 µM	293	–
CC[C@H](C)[C@H](NC(=O)[C@@H]1CCCN1C(=O)[C@@H](N)Cc1ccc(OP(=O)(O)O)cc1)C(=O)O [Tyr(P)-Pro-Ile] (H-[pY]-Pro-Ile-OH; N-terminus and C-terminus assumed)	–	2000	In vivo DPIV-inhibition at tmax, p.o. (%) [1]: no inhibition
CC(=O)C1CCCN1C(=O)C(N)C(C)C (stereo not drawn) [Val-Pro-methyl ketone]	0.0476 µM	0.579	–
CC(C)(C)C(N)C(=O)C1CCCCC1 (stereo not drawn) [t-butyl-Gly-cyclohexyl ketone]	273 µM	273	–
CC(C)[C@H](N)C(=O)N1CCCC1.O=C(O)/C=C/C(=O)O [valyl pyrrolidine fumarate]	–	–	tumor cell adhesion, CFSE positive cells in lung tissue [6]: no significant effect; also recorded: significant differences vs. saline treated controls were not found
Val-cyclohexyl ketone	–	1000	–
